Experiment [1] addresses DNA-dependent protein kinase catalytic subunit (Homo sapiens) (UniProt P78527). As to the kind of experiment: Selectivity interaction (Kinase panel (Z-LYTE Assay)) EUB0001632a PRKDC. The conditions noted are these: at 10 µM.
Experiment [2] has as its target T1, Dual specificity mitogen-activated protein kinase kinase 4 (Homo sapiens) (UniProt P45985).
T1 sequence (whole entry): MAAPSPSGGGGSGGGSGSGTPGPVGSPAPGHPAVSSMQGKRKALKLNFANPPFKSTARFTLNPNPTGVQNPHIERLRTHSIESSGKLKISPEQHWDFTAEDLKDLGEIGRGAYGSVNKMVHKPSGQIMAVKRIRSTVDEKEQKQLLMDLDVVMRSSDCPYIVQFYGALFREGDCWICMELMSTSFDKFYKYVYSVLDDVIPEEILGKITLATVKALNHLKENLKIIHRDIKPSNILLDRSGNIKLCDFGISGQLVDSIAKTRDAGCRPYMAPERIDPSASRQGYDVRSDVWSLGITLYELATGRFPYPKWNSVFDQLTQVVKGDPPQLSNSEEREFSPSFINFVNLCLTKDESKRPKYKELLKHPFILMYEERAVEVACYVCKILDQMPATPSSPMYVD
As to the kind of experiment: Selectivity interaction (KinomeScan (DiscoverX)) EUB0001550a MAP2K4. The conditions noted are these: at 1 µM.

In experiment [3] the test system is Tyrosine-protein kinase ABL1 (Homo sapiens), P00519 [H396P]. The conditions noted are these: at 10 µM.
The target of experiment [4] is Casein kinase I isoform gamma-3 (Homo sapiens) (UniProt Q9Y6M4). As to the kind of experiment: Selectivity interaction (Kinase panel (Invitrogen)) EUB0000639a CSNK1G3. The conditions noted are these: at 200 nM.
Casein kinase I isoform gamma-3 (Homo sapiens), sequence (Q9Y6M4 whole entry, looked up, canonical isoform): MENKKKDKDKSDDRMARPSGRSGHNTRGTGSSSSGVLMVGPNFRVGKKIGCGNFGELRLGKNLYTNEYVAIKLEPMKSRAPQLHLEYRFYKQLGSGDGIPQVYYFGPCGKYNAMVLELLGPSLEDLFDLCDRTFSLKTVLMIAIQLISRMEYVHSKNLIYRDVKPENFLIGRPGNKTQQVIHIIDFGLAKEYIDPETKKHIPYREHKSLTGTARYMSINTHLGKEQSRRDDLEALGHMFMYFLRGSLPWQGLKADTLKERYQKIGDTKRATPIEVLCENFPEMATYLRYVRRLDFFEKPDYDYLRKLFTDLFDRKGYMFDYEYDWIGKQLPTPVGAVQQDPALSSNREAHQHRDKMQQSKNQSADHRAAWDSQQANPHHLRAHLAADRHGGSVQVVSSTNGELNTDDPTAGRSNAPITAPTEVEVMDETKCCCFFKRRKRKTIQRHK
In experiment [5] the target is T2, Serine/threonine-protein kinase LATS1 (Homo sapiens) (UniProt O95835).
T2 sequence (whole entry): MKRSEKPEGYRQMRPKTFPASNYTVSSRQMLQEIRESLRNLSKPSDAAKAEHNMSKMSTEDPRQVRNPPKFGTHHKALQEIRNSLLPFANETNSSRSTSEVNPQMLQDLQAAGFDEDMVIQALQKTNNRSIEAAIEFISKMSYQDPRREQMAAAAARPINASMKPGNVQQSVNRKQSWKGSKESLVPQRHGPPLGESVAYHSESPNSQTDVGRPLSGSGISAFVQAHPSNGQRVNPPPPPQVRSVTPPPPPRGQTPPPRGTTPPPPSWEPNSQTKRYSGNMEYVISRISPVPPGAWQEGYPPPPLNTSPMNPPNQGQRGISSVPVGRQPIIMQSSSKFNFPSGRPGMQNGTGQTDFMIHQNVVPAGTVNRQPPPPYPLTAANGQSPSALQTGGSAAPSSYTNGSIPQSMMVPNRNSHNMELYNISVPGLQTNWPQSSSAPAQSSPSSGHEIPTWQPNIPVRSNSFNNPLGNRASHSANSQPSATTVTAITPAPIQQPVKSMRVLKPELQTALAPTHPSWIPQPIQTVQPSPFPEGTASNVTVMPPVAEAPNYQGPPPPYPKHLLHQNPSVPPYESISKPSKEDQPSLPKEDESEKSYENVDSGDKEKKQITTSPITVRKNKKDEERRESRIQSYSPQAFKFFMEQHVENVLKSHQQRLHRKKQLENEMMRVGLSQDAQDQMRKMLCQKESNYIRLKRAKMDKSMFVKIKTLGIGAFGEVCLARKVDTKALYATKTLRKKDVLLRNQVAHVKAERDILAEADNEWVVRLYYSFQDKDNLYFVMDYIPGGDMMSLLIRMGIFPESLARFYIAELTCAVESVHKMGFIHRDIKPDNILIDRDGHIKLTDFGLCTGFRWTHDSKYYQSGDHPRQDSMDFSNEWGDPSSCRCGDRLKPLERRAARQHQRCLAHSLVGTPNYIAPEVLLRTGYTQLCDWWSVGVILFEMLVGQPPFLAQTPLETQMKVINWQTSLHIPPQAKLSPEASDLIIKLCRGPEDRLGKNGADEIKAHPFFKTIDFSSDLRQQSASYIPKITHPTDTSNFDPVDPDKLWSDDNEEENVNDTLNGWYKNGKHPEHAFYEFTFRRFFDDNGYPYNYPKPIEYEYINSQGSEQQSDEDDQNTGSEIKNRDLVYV
As to the kind of experiment: Selectivity interaction (ActivX KiNativ screen (kinase selectivity in THP-1 cell lysates)) EUB0000639a LATS1. In kind it is subcellular. The following applies: lysate, at 0.2 µM.

Experiment [6] deals with T3, Serine/threonine-protein kinase ULK3 (Homo sapiens) (UniProt Q6PHR2).
T3 sequence (whole entry): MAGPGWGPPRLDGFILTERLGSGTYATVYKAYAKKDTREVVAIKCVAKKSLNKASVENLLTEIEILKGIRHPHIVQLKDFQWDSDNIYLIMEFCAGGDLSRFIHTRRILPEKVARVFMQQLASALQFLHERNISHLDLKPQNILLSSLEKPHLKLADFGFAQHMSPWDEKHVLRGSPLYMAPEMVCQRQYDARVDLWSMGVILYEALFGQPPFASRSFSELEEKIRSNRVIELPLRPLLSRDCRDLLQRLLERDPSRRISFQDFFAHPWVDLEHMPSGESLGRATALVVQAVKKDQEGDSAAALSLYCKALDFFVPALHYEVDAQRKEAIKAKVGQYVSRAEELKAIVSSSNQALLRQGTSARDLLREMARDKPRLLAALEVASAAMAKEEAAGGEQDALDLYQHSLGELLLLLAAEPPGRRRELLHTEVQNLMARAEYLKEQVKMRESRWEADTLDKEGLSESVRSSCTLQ
As to the kind of experiment: Selectivity interaction (KinomeScan (DiscoverX)) EUB0000045b ULK3.

The target in experiment [7] is Serine/threonine-protein kinase NIM1 (Homo sapiens, UniProt Q8IY84). The experiment is described as follows: Selectivity interaction (KinomeScan (DiscoverX)) EUB0000045b NIM1K.
Serine/threonine-protein kinase NIM1, sequence (Q8IY84 whole entry): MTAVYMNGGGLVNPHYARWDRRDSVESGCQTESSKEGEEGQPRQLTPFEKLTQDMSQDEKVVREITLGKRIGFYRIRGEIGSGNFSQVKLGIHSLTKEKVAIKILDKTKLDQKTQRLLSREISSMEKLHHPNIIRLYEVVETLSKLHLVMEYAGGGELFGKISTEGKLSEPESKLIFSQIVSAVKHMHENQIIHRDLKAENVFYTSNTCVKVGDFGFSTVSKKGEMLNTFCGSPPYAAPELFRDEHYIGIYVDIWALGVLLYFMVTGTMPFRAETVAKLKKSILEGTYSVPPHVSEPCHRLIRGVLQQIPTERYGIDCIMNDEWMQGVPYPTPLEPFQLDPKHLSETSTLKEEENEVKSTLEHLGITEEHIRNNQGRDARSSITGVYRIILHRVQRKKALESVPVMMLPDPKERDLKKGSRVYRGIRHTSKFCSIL
Experiment [8] has as its target TRAF2 and NCK-interacting protein kinase (Homo sapiens) (UniProt Q9UKE5). As to the kind of experiment: Selectivity interaction (KinomeScan (DiscoverX)) EUB0001049a TNIK. The conditions noted are these: at 1 µM.
Experiment [9] deals with Protein kinase C eta type (Homo sapiens) (UniProt P24723). As to the kind of experiment: Selectivity interaction (KinomeScan (DiscoverX)) EUB0000092b PRKCH. The following applies: at 10 µM.
Protein kinase C eta type (Homo sapiens), sequence (P24723 whole entry): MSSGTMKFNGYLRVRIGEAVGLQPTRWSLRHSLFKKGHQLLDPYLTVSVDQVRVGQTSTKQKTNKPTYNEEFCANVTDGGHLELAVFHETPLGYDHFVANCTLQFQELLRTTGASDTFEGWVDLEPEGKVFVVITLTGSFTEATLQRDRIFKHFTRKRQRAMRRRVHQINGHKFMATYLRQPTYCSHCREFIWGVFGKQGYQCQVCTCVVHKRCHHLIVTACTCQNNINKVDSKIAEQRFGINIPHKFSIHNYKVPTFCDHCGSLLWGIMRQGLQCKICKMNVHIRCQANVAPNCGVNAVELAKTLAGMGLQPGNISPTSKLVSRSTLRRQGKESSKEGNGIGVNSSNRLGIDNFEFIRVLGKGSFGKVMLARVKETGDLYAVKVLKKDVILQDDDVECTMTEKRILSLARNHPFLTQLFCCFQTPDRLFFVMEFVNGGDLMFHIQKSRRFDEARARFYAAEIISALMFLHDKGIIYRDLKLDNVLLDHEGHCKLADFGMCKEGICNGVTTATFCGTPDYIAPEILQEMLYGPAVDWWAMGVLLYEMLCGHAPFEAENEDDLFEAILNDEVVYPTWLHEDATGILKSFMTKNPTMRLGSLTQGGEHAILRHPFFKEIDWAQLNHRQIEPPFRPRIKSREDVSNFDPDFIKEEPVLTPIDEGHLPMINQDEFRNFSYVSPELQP
The target of experiment [10] is Tyrosine-protein kinase Fyn (Homo sapiens) (UniProt P06241). The experiment is described as follows: Selectivity interaction (Kinase panel (KiNativ target engagement assay in Jurkat cells)) EUB0001635a FYN. In kind it is cell-based. The following applies: Selectivity number of off-targets 0.0, Selectivity number of targets 233.0, Source Knowledge https://www.sciencedirect.com/science/article/pii/S2451945619300674?via%3Dihub, at 1 µM.
Tyrosine-protein kinase Fyn (Homo sapiens), sequence (P06241 2-537 limits assumed): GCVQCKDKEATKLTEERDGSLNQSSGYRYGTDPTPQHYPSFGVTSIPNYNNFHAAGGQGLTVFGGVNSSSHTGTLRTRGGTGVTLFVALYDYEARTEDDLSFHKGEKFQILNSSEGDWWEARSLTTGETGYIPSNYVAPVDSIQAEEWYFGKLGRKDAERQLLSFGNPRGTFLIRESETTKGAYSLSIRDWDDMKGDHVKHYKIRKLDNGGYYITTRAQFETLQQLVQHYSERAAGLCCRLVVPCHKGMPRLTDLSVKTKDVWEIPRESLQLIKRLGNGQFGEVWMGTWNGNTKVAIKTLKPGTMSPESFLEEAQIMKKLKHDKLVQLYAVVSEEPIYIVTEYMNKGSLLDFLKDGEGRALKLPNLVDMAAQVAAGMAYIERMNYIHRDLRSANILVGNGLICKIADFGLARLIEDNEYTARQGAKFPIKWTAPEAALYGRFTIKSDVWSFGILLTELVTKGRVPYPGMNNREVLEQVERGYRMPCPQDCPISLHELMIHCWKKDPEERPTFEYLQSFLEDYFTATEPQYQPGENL

In experiment [11] the target is eIF-2-alpha kinase GCN2 (Homo sapiens) (UniProt Q9P2K8). The experiment is described as follows: Selectivity interaction (Kinase panel (KiNativ target engagement assay in Jurkat cells)) EUB0001635a EIF2AK4. In kind it is cell-based. The following applies: at 1 µM.
eIF-2-alpha kinase GCN2 (Homo sapiens), sequence (Q9P2K8 whole entry): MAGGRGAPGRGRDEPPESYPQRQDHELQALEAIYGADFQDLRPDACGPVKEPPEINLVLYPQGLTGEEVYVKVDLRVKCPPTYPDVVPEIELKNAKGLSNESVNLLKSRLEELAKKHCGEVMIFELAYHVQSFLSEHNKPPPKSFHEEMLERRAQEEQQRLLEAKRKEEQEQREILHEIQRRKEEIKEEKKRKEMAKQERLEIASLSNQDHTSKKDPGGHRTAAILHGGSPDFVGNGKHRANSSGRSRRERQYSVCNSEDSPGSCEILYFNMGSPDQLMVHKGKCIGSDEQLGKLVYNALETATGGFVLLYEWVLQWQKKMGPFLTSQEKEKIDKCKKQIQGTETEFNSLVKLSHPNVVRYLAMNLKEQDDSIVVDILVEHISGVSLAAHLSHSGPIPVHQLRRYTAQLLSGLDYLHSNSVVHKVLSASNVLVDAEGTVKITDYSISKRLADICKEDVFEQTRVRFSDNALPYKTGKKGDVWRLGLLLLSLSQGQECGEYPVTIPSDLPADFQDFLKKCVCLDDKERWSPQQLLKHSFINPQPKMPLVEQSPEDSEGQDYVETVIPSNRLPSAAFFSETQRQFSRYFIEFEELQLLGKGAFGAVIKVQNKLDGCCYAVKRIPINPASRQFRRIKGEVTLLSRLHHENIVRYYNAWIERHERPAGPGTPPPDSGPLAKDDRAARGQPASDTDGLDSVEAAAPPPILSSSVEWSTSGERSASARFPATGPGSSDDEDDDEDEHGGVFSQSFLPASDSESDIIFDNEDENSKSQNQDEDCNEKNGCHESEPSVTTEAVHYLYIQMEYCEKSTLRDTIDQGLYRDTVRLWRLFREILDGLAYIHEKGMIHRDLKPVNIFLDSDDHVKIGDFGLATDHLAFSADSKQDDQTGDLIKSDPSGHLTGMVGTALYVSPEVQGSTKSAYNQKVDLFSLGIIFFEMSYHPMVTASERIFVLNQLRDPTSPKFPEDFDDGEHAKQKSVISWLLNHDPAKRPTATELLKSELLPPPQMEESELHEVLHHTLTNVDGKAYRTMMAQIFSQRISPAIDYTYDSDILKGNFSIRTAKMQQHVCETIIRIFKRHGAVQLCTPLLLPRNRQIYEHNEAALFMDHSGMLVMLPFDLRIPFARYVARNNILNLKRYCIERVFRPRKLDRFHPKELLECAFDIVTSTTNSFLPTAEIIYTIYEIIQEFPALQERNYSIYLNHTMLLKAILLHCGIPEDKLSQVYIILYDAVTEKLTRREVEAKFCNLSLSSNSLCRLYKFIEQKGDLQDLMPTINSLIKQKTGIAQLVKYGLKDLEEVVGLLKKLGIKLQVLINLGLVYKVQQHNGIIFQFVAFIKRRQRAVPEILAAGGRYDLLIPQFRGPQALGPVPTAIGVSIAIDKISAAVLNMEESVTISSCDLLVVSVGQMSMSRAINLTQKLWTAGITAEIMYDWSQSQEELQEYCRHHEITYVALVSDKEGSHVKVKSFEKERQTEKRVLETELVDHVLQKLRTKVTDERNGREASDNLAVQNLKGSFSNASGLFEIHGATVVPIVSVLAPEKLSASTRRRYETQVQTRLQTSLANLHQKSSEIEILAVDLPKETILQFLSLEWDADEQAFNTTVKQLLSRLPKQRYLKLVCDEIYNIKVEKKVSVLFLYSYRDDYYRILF

For `Cn1cc(-n2cnc3c(NCc4nc5cc(Cl)c(Cl)cc5[nH]4)nc(N4CCOCC4)nc32)cn1`, the % of control in experiment [1] worked out at 11.8%.
For the compound `CN(C)CC#Cc1ccc2[nH]c3c(c2c1)-c1nc(N)ncc1CCC3`, in [2], the % of control worked out at 12%.
As to `Cc1cc([C@@H](C)Nc2ccccc2C(=O)O)c2nc(N3CCOCC3)cc(=O)n2c1` [AZD-6482], the % of control in [3] is 61%.
In the case of `CC[C@@H]1[C@H](F)C(=O)N[C@@H]1COc1nccc2cc(C(N)=O)c(OC)cc12` [ZIMLOVISERTIB], the % of inhibition in [4] is 62.9%; in experiment [5], -82.2%.
Turning to `C=CC(=O)Nc1cc(-n2c(=O)ccc3cnc4ccc(-c5ccc(NS(C)(=O)=O)cc5)cc4c32)ccc1C`, the % of control in [6] (at 1 µM) amounted to 80%; in [6] (at 10 µM), 100%; in experiment [7] (at 1 µM), 100%; in experiment [7] (at 10 µM), 100%.
As to `COc1cc(Nc2nc(C)cc(-c3cnn4nc(OC)ccc34)n2)cc(C(F)(F)F)c1`, the % of control in experiment [8] amounted to 74%.
In experiment [9], `CCC(=O)N1CCN(c2ccc(-n3c(=O)ccc4cnc5ccc(-c6cnc7ccccc7c6)cc5c43)cc2C(F)(F)F)CC1` registered a % of control of 92%.
With `C=CC(=O)Nc1ccc(C(=O)Nc2[nH]nc3c2CN(C(=O)N[C@H](CN(C)C)c2ccccc2)C3(C)C)cc1`, the % of engagement in [10] was 6.2%; in [11] (Selectivity number of off-targets 0.0, Selectivity number of targets 233.0, Source Knowledge https://www.sciencedirect.com/science/article/pii/S2451945619300674?via%3Dihub) it was -7.2%; in experiment [11] it was -16.6%.

For the origin of these results see ChEMBL document CHEMBL5465560, “Selectivity Literature for EUbOPEN Chemogenomic Library” (2024).
